Data taken from publication PMC3375280 (PLoS ONE, 2012).
Substitutions are numbered along the chain they refer to.

What was measured:
[1] = target: T1, AT1 C76A/F110C/C289A mutant receptor (Rattus norvegicus, UniProt P25095, C289A/C76A/F110C); experiment: competition binding, C76A/F110C/C289A mutant; conditions: for Kd ratio relative to WT (in parentheses): C76A/F110C/C289A / WT; for Kd: C76A/F110C/C289A, COS1 membranes, read-out: Binding affinity (Kd)
T1 construct: expressed in transfected cells; host or cells: COS1
T1 sequence (P25095 1-359 C76A/F110C/C289A): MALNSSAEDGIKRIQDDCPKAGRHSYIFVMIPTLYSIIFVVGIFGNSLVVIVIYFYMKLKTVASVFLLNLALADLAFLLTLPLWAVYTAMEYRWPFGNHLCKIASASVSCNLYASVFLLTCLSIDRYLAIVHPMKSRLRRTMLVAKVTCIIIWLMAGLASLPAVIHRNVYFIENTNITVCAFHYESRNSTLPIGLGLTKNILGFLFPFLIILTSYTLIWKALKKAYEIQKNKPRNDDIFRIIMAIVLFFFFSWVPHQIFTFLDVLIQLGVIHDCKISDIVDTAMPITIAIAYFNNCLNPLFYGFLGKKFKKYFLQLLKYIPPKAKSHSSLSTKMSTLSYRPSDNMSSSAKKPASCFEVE
Procedure: (§1) The Kd and Bmax values of receptor binding were determined by ^125I-[Sar^1, Ile^8] […] Membranes expressing the WT or mutant AT1 receptors were incubated with 100 pM ^125I-[Sar^1, Ile^8] […] The binding reaction was terminated by filtering the incubation mixture through Whatman GF/C glass filters, and the residues were extensively washed further with binding buffer. The bound ligand fraction was determined from the counts per minute (cpm) remaining on the membrane. Binding kinetics values were determined as previously described.

[2] = target: T2, AT1 S115A mutant receptor (Rattus norvegicus, UniProt P25095, S115A); experiment: competition binding, S115A mutant; conditions: for Kd ratio relative to WT (in parentheses): S115A / WT; for Kd: S115A, COS1 membranes, read-out: Binding affinity (Kd)
T2 construct: expressed in transfected cells; host or cells: COS1
T2 sequence (P25095 1-359 S115A): T1 sequence (P25095 1-359 C76A/F110C/C289A) with A76C, C110F, S115A, A289C
Procedure: as §1

[3] = target: T3, AT1 A106G mutant receptor (Rattus norvegicus, UniProt P25095, A106G); experiment: competition binding, A106G mutant; conditions: for Kd ratio relative to WT (in parentheses): A106G / WT; for Kd: A106G, COS1 membranes, read-out: Binding affinity (Kd)
T3 construct: expressed in transfected cells; host or cells: COS1
T3 sequence (P25095 1-359 A106G): T1 sequence (P25095 1-359 C76A/F110C/C289A) with A76C, A106G, C110F, A289C
Procedure: as §1

[4] = target: T4, AT1 V108A mutant receptor (Rattus norvegicus, UniProt P25095, V108A); experiment: competition binding, V108A mutant; conditions: for Kd ratio relative to WT (in parentheses): V108A / WT; for Kd: V108A, COS1 membranes, read-out: Binding affinity (Kd)
T4 construct: expressed in transfected cells; host or cells: COS1
T4 sequence (P25095 1-359 V108A): T1 sequence (P25095 1-359 C76A/F110C/C289A) with A76C, V108A, C110F, A289C
Procedure: as §1

[5] = target: T5, AT1 C76A/C289A mutant receptor (Rattus norvegicus, UniProt P25095, C289A/C76A); experiment: competition binding, C76A/C289A mutant; conditions: for Kd ratio relative to WT (in parentheses): C76A/C289A / WT; for Kd: C76A/C289A, COS1 membranes, read-out: Binding affinity (Kd)
T5 construct: expressed in transfected cells; host or cells: COS1
T5 sequence (P25095 1-359 C76A/C289A): T1 sequence (P25095 1-359 C76A/F110C/C289A) with C110F
Procedure: as §1

[6] = target: T6, AT1 C76A/Y113C/C289A mutant receptor (Rattus norvegicus, UniProt P25095, C289A/C76A/Y113C); experiment: competition binding, C76A/Y113C/C289A mutant; conditions: for Kd ratio relative to WT (in parentheses): C76A/Y113C/C289A / WT; for Kd: C76A/Y113C/C289A, COS1 membranes, read-out: Binding affinity (Kd)
T6 construct: expressed in transfected cells; host or cells: COS1 cells (membranes)
T6 sequence (P25095 1-359 C76A/Y113C/C289A): T1 sequence (P25095 1-359 C76A/F110C/C289A) with C110F, Y113C
Procedure: as §1

Kd ratio relative to WT (in parentheses) [1]	Kd [1]	Kd ratio relative to WT (in parentheses) [2]	Kd [2]	Kd ratio relative to WT (in parentheses) [3]	Kd [3]	Kd ratio relative to WT (in parentheses) [4]	Kd [4]	Kd ratio relative to WT (in parentheses) [5]	Kd [5]	Kd ratio relative to WT (in parentheses) [6]	Kd [6]	SMILES
2.9 fold	6.6 ± 2.4 nM	1.3 fold	3.1 ± 1.7 nM	2.6 fold	6.1 ± 2.2 nM	2.1 fold	4.8 ± 2 nM	2.5 fold	5.7 ± 1.6 nM	248 fold	570 ± 197 nM	CCCc1nc(C(C)(C)O)c(C(=O)O)n1Cc1ccc(-c2ccccc2-c2nnn[nH]2)cc1 [Olmesartan, olmesartan, reference compound]
2.6 fold	126 ± 13 nM	3.1 fold	150 ± 41 nM	17 fold	792 ± 202 nM	51 fold	2450 ± 1310 nM	1.5 fold	73 ± 20 nM	134 fold	6420 ± 2570 nM	CCCc1nc(C(C)(C)O)c(C(N)=O)n1Cc1ccc(-c2cc(Cc3ccc(O)cc3)ccc2-c2nnn[nH]2)cc1 [R794847]
3.0 fold	2.4 ± 1.1 nM	1.6 fold	1.3 ± 0.4 nM	6.0 fold	4.8 ± 1.5 nM	2.0 fold	1.6 ± 0.8 nM	3.0 fold	2.4 ± 0.5 nM	340 fold	272 ± 129 nM	CCCc1nc(C(C)(C)O)c(C(N)=O)n1Cc1ccc(-c2ccccc2-c2nnn[nH]2)cc1 [R239470]
